Experimental data taken from the NIST ThermoML archive (doi:10.1016/j.jct.2013.12.012).
Several values for one entry are separate records, joined by “and”; a condition that tells them apart may be missing. Identical values can stand only once.

Assays:
[1] = molar heat capacity at constant pressure
[2] = Molar enthalpy of transition or fusion; conditions: DSC
[3] = for vapor or sublimation pressure: Closed cell (Static) method; for Normal melting temperature / Triple point temperature: DTA

C=C1C2CCC(C2)C1(C)C (stereo not drawn) [2,2-dimethyl-3-methylenebicyclo[2.2.1]heptane]
[1], 101.33 kPa, Large sample (1 g) DSC
Conditions | molar heat capacity at constant pressure [J/K/mol]
258.1 K, Crystal | 211.1
263.2 K, Crystal | 213.9
268.3 K, Crystal | 216.8
273.4 K, Crystal | 219.8
278.5 K, Crystal | 222.7
283.6 K, Crystal | 225.7
288.7 K, Crystal | 228.8
293.8 K, Crystal | 231.9
298.9 K, Crystal | 235.1
324.5 K, Liquid | 251.5
329.6 K, Liquid | 254.5
334.7 K, Liquid | 257.4
339.8 K, Liquid | 259.8
344.9 K, Liquid | 262.3
350 K, Liquid | 265.6
355.1 K, Liquid | 269.3

Crystal
Conditions | Molar enthalpy of transition or fusion [kJ/mol] | Normal melting temperature [°C]
[2] | 2.7 | –
[3] | – | 44.5

[3], Crystal
Conditions | vapor or sublimation pressure
238.15 K | 0.003435 kPa and 0.003436 kPa
243.15 K | 0.005761 kPa and 0.005765 kPa and 0.005768 kPa
248.15 K | 0.00946 kPa and 0.009464 kPa and 0.009473 kPa
253.15 K | 0.01527 kPa
258.15 K | 0.0241 kPa and 0.02413 kPa
263.15 K | 0.03746 kPa and 0.03747 kPa
268.15 K | 0.05698 kPa and 0.05699 kPa
273.15 K | 0.08514 kPa and 0.08515 kPa and 0.08516 kPa
273.65 K | 0.0885 kPa and 0.08853 kPa and 0.08854 kPa
278.15 K | 0.1252 kPa
283.15 K | 0.1811 kPa
288.15 K | 0.2585 kPa and 0.2586 kPa and 0.2587 kPa
293.15 K | 0.3628 kPa and 0.363 kPa and 0.3631 kPa
298.15 K | 0.5037 kPa and 0.5038 kPa and 0.5039 kPa
303.15 K | 0.6891 kPa and 0.6896 kPa and 0.69 kPa
308.15 K | 0.934 kPa and 0.9343 kPa and 0.9345 kPa

CC1(C)[C@H]2CC[C@]1(C)C(=O)C2 [(1S)-1,7,7-trimethylbicyclo[2.2.1]heptan-2-one]
[1], 101.33 kPa, Crystal 2, Large sample (1 g) DSC
Conditions | molar heat capacity at constant pressure [J/K/mol]
273.4 K | 241
278.5 K | 242
283.6 K | 243
288.7 K | 244.9
293.8 K | 246.6
298.9 K | 248.9
304 K | 251
309.1 K | 253.2
314.2 K | 255.5
319.4 K | 256.9
324.5 K | 259.7
329.6 K | 262.5
334.7 K | 264.8
339.8 K | 267.2
344.9 K | 270.5
350 K | 273.6
355.1 K | 276.7

Conditions | Molar enthalpy of transition or fusion, Crystal 1 [kJ/mol] | Molar enthalpy of transition or fusion, Crystal 2 [kJ/mol] | Molar enthalpy of transition or fusion, Crystal 3 [kJ/mol] | Normal melting temperature, Crystal 1 [°C] | Triple point temperature, Crystal 2 [K] | Triple point temperature, Crystal 3 [K]
[2] | 4.9 | 0.2 | 11 | – | – | –
[3] | – | – | – | 175.4 | 373.4 | 243.9

[3], Crystal 2
Conditions | vapor or sublimation pressure
273.65 K | 0.00359 kPa and 0.003604 kPa and 0.003606 kPa
278.15 K | 0.005406 kPa and 0.005414 kPa and 0.00542 kPa
283.15 K | 0.008302 kPa and 0.008322 kPa and 0.008324 kPa
288.15 K | 0.01261 kPa and 0.01262 kPa and 0.0126 kPa
293.15 K | 0.01883 kPa and 0.01885 kPa and 0.01888 kPa
298.15 K | 0.02802 kPa and 0.02806 kPa and 0.02812 kPa
303.15 K | 0.04122 kPa and 0.04127 kPa
308.15 K | 0.05983 kPa and 0.05985 kPa and 0.05989 kPa

CC1(C)[C@H]2CC[C@]1(C)[C@H](O)C2 [(1S-endo)-1,7,7-trimethylbicyclo[2.2.1]heptan-2-ol]
[1], 101.33 kPa, Crystal 2, Large sample (1 g) DSC
Conditions | molar heat capacity at constant pressure [J/K/mol]
273.4 K | 237.9
278.5 K | 241.9
283.6 K | 246.4
288.7 K | 250.5
293.8 K | 255.4
298.9 K | 261.2
304 K | 266.7
309.1 K | 272.5
314.2 K | 279
319.4 K | 286.1
324.5 K | 293.6
329.6 K | 302
334.7 K | 311

Conditions | Molar enthalpy of transition or fusion, [2] [kJ/mol] | Normal melting temperature, [3] [°C] | Triple point temperature, [3] [K]
Crystal 1 | 7.3 | 207.2 | –
Crystal 2 | 3.2 | – | 347.9

[3], Crystal 2
Conditions | vapor or sublimation pressure
273.65 K | 0.000211 kPa and 0.000212 kPa
278.15 K | 0.00036 kPa and 0.000361 kPa
283.15 K | 0.000638 kPa and 0.000639 kPa
288.15 K | 0.001105 kPa and 0.001106 kPa and 0.001104 kPa
293.15 K | 0.001882 kPa and 0.001883 kPa
298.15 K | 0.003159 kPa and 0.003161 kPa and 0.003162 kPa
303.15 K | 0.005213 kPa and 0.005214 kPa and 0.005215 kPa
308.15 K | 0.008461 kPa and 0.008464 kPa and 0.008465 kPa

CC1(C)C(=O)[C@@]2(C)CC[C@@H]1C2 [(+)-fenchone]
[1], 101.33 kPa
Conditions | molar heat capacity at constant pressure [J/K/mol]
273.4 K, Metastable liquid, Large sample (1 g) DSC | 259.6
278.5 K, Metastable liquid, Large sample (1 g) DSC | 260.7
283.6 K, Large sample (1 g) DSC, Liquid | 263.6
288.7 K, Large sample (1 g) DSC, Liquid | 264.6
293.8 K, Large sample (1 g) DSC, Liquid | 266.6
298.9 K, Large sample (1 g) DSC, Liquid | 269.8
304 K, Large sample (1 g) DSC, Liquid | 271.8
309.1 K, Large sample (1 g) DSC, Liquid | 274.4
314.2 K, Large sample (1 g) DSC, Liquid | 277
319.4 K, Large sample (1 g) DSC, Liquid | 278.9
324.5 K, Large sample (1 g) DSC, Liquid | 281.7
329.6 K, Large sample (1 g) DSC, Liquid | 284.7
334.7 K, Large sample (1 g) DSC, Liquid | 287.3
339.8 K, Large sample (1 g) DSC, Liquid | 289.9
344.9 K, Large sample (1 g) DSC, Liquid | 292.7
350 K, Large sample (1 g) DSC, Liquid | 295.6
355.1 K, Large sample (1 g) DSC, Liquid | 298.8

Conditions | Molar enthalpy of transition or fusion, [2] [kJ/mol] | Normal melting temperature, [3] [°C] | Triple point temperature, [3] [K]
Crystal 1 | – | 5.5 | –
Crystal 2 | 17.4 | – | 278

[3]
Conditions | vapor or sublimation pressure
238.15 K, Crystal 2 | 0.00014 kPa and 0.000141 kPa and 0.000142 kPa
243.15 K, Crystal 2 | 0.000277 kPa and 0.000278 kPa
243.15 K, Metastable liquid | 0.000763 kPa and 0.000764 kPa
248.15 K, Crystal 2 | 0.000547 kPa and 0.000548 kPa
248.15 K, Metastable liquid | 0.001307 kPa and 0.001308 kPa
253.15 K, Crystal 2 | 0.001053 kPa and 0.001054 kPa
253.15 K, Metastable liquid | 0.002188 kPa and 0.002189 kPa
258.15 K, Crystal 2 | 0.001988 kPa and 0.001991 kPa and 0.001993 kPa
258.15 K, Metastable liquid | 0.003604 kPa and 0.003605 kPa
263.15 K, Crystal 2 | 0.0037 kPa and 0.003705 kPa
263.15 K, Metastable liquid | 0.005827 kPa and 0.005828 kPa and 0.005829 kPa
268.15 K, Crystal 2 | 0.006751 kPa and 0.006753 kPa
268.15 K, Metastable liquid | 0.009242 kPa and 0.009244 kPa and 0.009246 kPa
273.15 K, Crystal 2 | 0.01206 kPa
273.15 K, Metastable liquid | 0.01436 kPa
278.15 K, Crystal 1 | 0.02111 kPa and 0.02112 kPa
278.15 K, Metastable liquid | 0.02193 kPa and 0.02194 kPa
283.15 K, Liquid | 0.03289 kPa and 0.0329 kPa and 0.03291 kPa
288.15 K, Liquid | 0.04842 kPa and 0.04845 kPa
293.15 K, Liquid | 0.07036 kPa and 0.07037 kPa
298.15 K, Liquid | 0.1007 kPa and 0.1008 kPa
303.15 K, Liquid | 0.1421 kPa
308.15 K, Liquid | 0.1977 kPa and 0.1978 kPa
